# Results published in the supplement of paper PMC11061612.
# Legend:
# Experiment in all cases: combination Emax (second highest fraction inhibited in the dose matrix, 72 h); higher = more inhibition; extreme values may be limits of the assay
# [1] = test system: ZR-75-30 (Breast Carcinoma)
# In short: (§1)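 Cell lines grown in DMEM/F12 or RPMI with 10% FBS were plated in 1536-well plates and held 24 hours at 37°C, 5% CO2 before 72 hours of exposure to two-drug dose matrices, with DMSO typically at 0.2%. CellTiter-Glo 2.0 luminescence gave viability, which was converted to inhibition. Vehicle wells were set to 0 and blank wells to 1. Combination Emax is the second-highest inhibition in the matrix, and Bliss excess is the observed combination effect minus the expected EA + EB − EA·EB, where EA and EB are the single-agent effects.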
# [2] = test system: COR-L88 (Small Cell Lung Carcinoma)
# In short: as §1
# [3] = test system: P30-OHK (B-Lymphoblastic Leukemia)
# In short: as §1
# [4] = test system: NMC-G1 (Low Grade Glioma)
# In short: as §1
# [5] = test system: SNU-407 (Colorectal Carcinoma)
# In short: as §1
# [6] = test system: BHT-101 (Thyroid Gland Carcinoma)
# In short: as §1
# NCI-H2373 (Mesothelioma) = test system: NCI-H2373 (Mesothelioma)
# In short: as §1
# [7] = test system: NAMALWA (Burkitt's Lymphoma)
# In short: as §1
# WM35 (Melanoma) = test system: WM35 (Melanoma)
# In short: as §1
# IST-MEL1 (Melanoma) = test system: IST-MEL1 (Melanoma)
# In short: as §1
# [8] = test system: RCC-JW (Kidney Carcinoma)
# In short: as §1
# ES6 (Ewing's Sarcoma) = test system: ES6 (Ewing's Sarcoma)
# In short: as §1
# [9] = test system: MOLT-13 (T-Lymphoblastic Leukemia)
# In short: as §1
# [10] = test system: MOLP-8 (Plasma Cell Myeloma)
# In short: as §1
# [11] = test system: NCI-H1963 (Small Cell Lung Carcinoma)
# In short: as §1
# KALS-1 (Glioblastoma) = test system: KALS-1 (Glioblastoma)
# In short: as §1
# [12] = test system: MONO-MAC-6 (Acute Myeloid Leukemia)
# In short: as §1
# [13] = test system: P32-ISH (Burkitt's Lymphoma)
# In short: as §1
# [14] = test system: SK-CO-1 (Colorectal Carcinoma)
# In short: as §1
# [15] = test system: TUR (Acute Myeloid Leukemia)
# In short: as §1
Structure (SMILES),combination Emax [1],combination Emax [2],combination Emax [3],combination Emax [4],combination Emax [5],combination Emax [6],combination Emax (NCI-H2373 (Mesothelioma)),combination Emax [7],combination Emax (WM35 (Melanoma)),combination Emax (IST-MEL1 (Melanoma)),combination Emax [8],combination Emax (ES6 (Ewing's Sarcoma)),combination Emax [9],combination Emax [10],combination Emax [11],combination Emax (KALS-1 (Glioblastoma)),combination Emax [12],combination Emax [13],combination Emax [14],combination Emax [15]
"Cc1c2c(nn1C)CSCc1cc(n(C)n1)CSc1cc(c3ccccc3c1)OCCCc1c(C(=O)O)n(C)c3c-2c(Cl)ccc13 [AZD5991] + C[C@@H]1COCCN1C2=NC(=NC(=C2)C3(CC3)[S@](=N)(=O)C)C4=C5C=CNC5=NC=C4 [AZD6738] (first compound max 1 µM, 7x7, partner max 10 µM)",0.429,0.671,0.996,0.377,0.811,0.859,0.551,0.997,0.343,0.788,0.547,0.445,1,1,0.885,0.926,1,1,0.615,0.99
"COc1cccc2c1C(=O)c1c(O)c3c(c(O)c1C2=O)C[C@@](O)(C(=O)CO)C[C@@H]3O[C@H]1C[C@H](N)[C@H](O)[C@H](C)O1 [Doxorubicin] + Cc1cc2ncnn2cc1Nc1ncc2c(n1)n(C1CCOCC1)c(=O)n2C [AZD7648] (first compound max 1 µM, 7x7, partner max 10 µM)",0.3,0.455,0.975,0.405,0.406,0.563,0.95,0.976,0.564,0.724,0.75,0.573,0.986,0.915,0.799,0.832,0.999,0.992,0.77,0.935
"Cc1c2c(nn1C)CSCc1cc(n(C)n1)CSc1cc(c3ccccc3c1)OCCCc1c(C(=O)O)n(C)c3c-2c(Cl)ccc13 [AZD5991] + C[C@@H](Nc1cc(F)cc(F)c1)c1cc(C(=O)N(C)C)cc2c(=O)cc(N3CCOCC3)oc12 [AZD8186] (first compound max 1 µM, 7x7, partner max 3 µM)",0.528,0.221,0.805,0.224,0.672,0.659,0.287,0.986,0.307,0.303,0.461,0.354,1,1,0.437,0.436,1,1,0.283,0.391
"CC1(C)CCC(CN2CCN(c3ccc(C(=O)NS(=O)(=O)c4ccc(NCC5CCOCC5)c([N+](=O)[O-])c4)c(Oc4cnc5[nH]ccc5c4)c3)CC2)=C(c2ccc(Cl)cc2)C1 [Venetoclax] + C[C@@H]1COCCN1C2=NC(=NC(=C2)C3(CC3)[S@](=N)(=O)C)C4=C5C=CNC5=NC=C4 [AZD6738] (first compound max 1 µM, 7x7, partner max 10 µM)",0.191,0.769,1,0.461,0.77,0.642,0.591,0.889,0.269,0.823,0.469,0.571,1,0.75,0.985,0.83,0.985,0.933,0.55,0.963
"CN(CCO)CC[C@H](CSc1ccccc1)Nc1ccc(S(=O)(=O)NC(=O)c2ccc(N3CCC([C@@H](O)c4ccccc4-c4ccc(Cl)cc4)CC3)cc2)cc1S(=O)(=O)C(F)(F)F [AZD4320] + CCN(CCO)CCCOc1ccc2c(Nc3cc(CC(=O)Nc4cccc(F)c4)[nH]n3)ncnc2c1 [AZD2811] (first compound max 1 µM, 7x7, partner max 1 µM)",0.173,0.974,1,0.718,0.411,0.279,0.125,0.48,0.136,0.407,0.661,0.161,1,0.418,1,0.508,0.959,0.915,0.889,0.255
"COc1cccc(OCCCN)c1-c1cc(Nc2cnc(C#N)cn2)n[nH]1 [Prexasertib] + O=C(c1cc(Cc2n[nH]c(=O)c3ccccc23)ccc1F)N1CCN(C(=O)C2CC2)CC1 [Olaparib] (first compound max 1 µM, 7x7, partner max 10 µM)",0.202,0.609,0.991,0.371,0.583,0.774,0.378,0.983,0.79,0.706,0.319,0.58,1,0.882,0.908,0.785,0.976,1,0.643,1
"CN(C)CCCOc1ccc(-c2ccc3ncc4c(c3c2)n(C2CCOCC2)c(=O)n4C)cn1 [AZD0156] + C[C@@H]1COCCN1C2=NC(=NC(=C2)C3(CC3)[S@](=N)(=O)C)C4=C5C=CNC5=NC=C4 [AZD6738] (first compound max 1 µM, 7x7, partner max 10 µM)",0.189,0.8,0.877,0.269,0.742,0.627,0.588,0.96,0.771,0.745,0.597,0.557,0.925,0.848,0.804,0.868,0.858,0.951,0.721,0.923
"Cc1c2c(nn1C)CSCc1cc(n(C)n1)CSc1cc(c3ccccc3c1)OCCCc1c(C(=O)O)n(C)c3c-2c(Cl)ccc13 [AZD5991] + C1CN(CCC1(C(=O)N[C@@H](CCO)C2=CC=C(C=C2)Cl)N)C3=NC=NC4=C3C=CN4 [Capivasertib] (first compound max 1 µM, 7x7, partner max 3 µM)",0.567,0.259,0.71,0.214,0.774,0.418,0.42,1,0.207,0.212,0.208,0.281,1,1,0.43,0.469,1,1,0.213,0.913
"CN(CCO)CC[C@H](CSc1ccccc1)Nc1ccc(S(=O)(=O)NC(=O)c2ccc(N3CCC([C@@H](O)c4ccccc4-c4ccc(Cl)cc4)CC3)cc2)cc1S(=O)(=O)C(F)(F)F [AZD4320] + Cn1cnc2c(F)c(Nc3ccc(Br)cc3Cl)c(C(=O)NOCCO)cc21 [Selumetinib] (first compound max 1 µM, 7x7, partner max 3 µM)",0.294,0.959,0.99,0.55,0.57,0.852,0.406,0.512,0.926,0.35,0.665,0.449,1,0.468,1,0.449,0.658,0.801,0.941,0.161
"Cc1c2c(nn1C)CSCc1cc(n(C)n1)CSc1cc(c3ccccc3c1)OCCCc1c(C(=O)O)n(C)c3c-2c(Cl)ccc13 [AZD5991] + Cn1cnc2c(F)c(Nc3ccc(Br)cc3Cl)c(C(=O)NOCCO)cc21 [Selumetinib] (first compound max 1 µM, 7x7, partner max 3 µM)",0.281,0.17,0.744,0.31,0.789,0.913,0.318,0.999,0.929,0.395,0.228,0.209,1,1,0.427,0.24,1,1,0.818,0.629
"C=CCn1c(=O)c2cnc(Nc3ccc(N4CCN(C)CC4)cc3)nc2n1-c1cccc(C(C)(C)O)n1 [AZD1775] + C[C@@H]1COCCN1C2=NC(=NC(=C2)C3(CC3)[S@](=N)(=O)C)C4=C5C=CNC5=NC=C4 [AZD6738] (first compound max 1 µM, partner max 10 µM)",0.296,0.822,0.943,0.451,0.758,0.771,0.608,0.961,0.659,0.797,0.725,0.652,1,0.854,1,0.923,1,1,0.738,0.938
"Cc1c2c(nn1C)CSCc1cc(n(C)n1)CSc1cc(c3ccccc3c1)OCCCc1c(C(=O)O)n(C)c3c-2c(Cl)ccc13 [AZD5991] + CC1(C)CCC(CN2CCN(c3ccc(C(=O)NS(=O)(=O)c4ccc(NCC5CCOCC5)c([N+](=O)[O-])c4)c(Oc4cnc5[nH]ccc5c4)c3)CC2)=C(c2ccc(Cl)cc2)C1 [Venetoclax] (first compound max 1 µM, 7x7, partner max 1 µM)",0.779,0.817,0.996,0.157,0.717,0.587,0.161,0.994,0.243,0.2,0.23,0.255,1,1,0.824,0.305,1,1,0.16,0.637
